Assay: Inhibition of C-terminal FLAG-His-tagged full length human CTPS1 measured after 60 mins by ADP-Glo assay

Compound	IC50 [nM]
CCC(C(=O)Nc1ccc(-c2cncc(OCC(F)(F)F)n2)cc1)c1ccnc(NS(=O)(=O)C2CC2)n1 (stereo not given)	≤ 100
CCC(C(=O)Nc1ccc(-c2cncc(Cl)n2)cc1)c1ccnc(NS(=O)(=O)C2CC2)n1 (stereo not given)	> 100
CCOc1cncc(-c2ccc(NC(=O)C(CCOC)c3ccnc(NS(=O)(=O)C4CC4)n3)cc2)n1 (stereo not given)	≤ 100
CC(C(=O)Nc1ccc(-c2cccnc2)cc1)c1ccnc(NS(=O)(=O)C2CC2)n1 (stereo not given)	> 100
CCC(C(=O)Nc1ccc(-c2cncc(OC)n2)cc1)c1ccnc(NS(=O)(=O)C2CC2)n1 (stereo not given)	≤ 100
CCC(C(=O)Nc1ccc(-c2cnccn2)cc1)c1ccnc(NS(=O)(=O)C2CC2)n1 (stereo not given)	> 100
CCC(C(=O)Nc1ccc(-c2cncc(C(F)(F)F)n2)cc1)c1ccnc(NS(=O)(=O)C2CC2)n1 (stereo not given)	> 100
CCC(C(=O)Nc1ccc(-c2cncc(OCC(F)(F)F)c2)cc1)c1ccnc(NS(=O)(=O)C2CC2)n1 (stereo not given)	> 100
CCC(C(=O)Nc1ccc(-c2cncc(C#N)c2)cc1)c1ccnc(NS(=O)(=O)C2CC2)n1 (stereo not given)	> 100
CCC(C(=O)Nc1ccc(-c2cccnc2)cc1)c1ccnc(NS(=O)(=O)C2CC2)n1 (stereo not given)	> 100
CCC(C(=O)Nc1ccc(-c2cncc(OCC(F)(F)F)n2)cc1F)c1ccnc(NS(=O)(=O)C2CC2)n1 (stereo not given)	≤ 100
CCC(C(=O)Nc1ccc(-c2cncc(OC(C)C)n2)cc1)c1ccnc(NS(=O)(=O)C2CC2)n1 (stereo not given)	≤ 100
CCOc1cncc(-c2ccc(NC(=O)C(CC)c3ccnc(NS(=O)(=O)C4CC4)n3)cc2)n1 (stereo not given)	≤ 100
CCC(C(=O)Nc1ccc(-c2cncc(OC(C)C)n2)cc1F)c1ccnc(NS(=O)(=O)C2CC2)n1 (stereo not given)	≤ 100
CCC(C(=O)Nc1ccc(-c2cncc(OC(C)C)c2)cc1)c1ccnc(NS(=O)(=O)C2CC2)n1 (stereo not given)	> 100

— ChEMBL document CHEMBL5052818, “Aminopyrimidine derivatives as ctps1 inhibitors” (2019)
